Test results: ChEMBL document CHEMBL3885861, “Open TG-GATES”

Organism: Rattus norvegicus
Test: Open TG-GATES - Regimen: Single
Assay type: toxicity, organism-based, Sprague-Dawley
Parameters: regimen Single, gender Male, age 6 weeks
Settings: in vivo, po, 30 mg/kg, route gavage, dose level Low; for APTT / Bas / Eos / Fbg / Hb / Ht / Lym / MCH / MCHC / MCV / Mono / Neu / PT / Plat / RBC / Ret / WBC: tissue Blood; for KIDNEY_L / KIDNEY_R / KIDNEY_TOTAL: tissue Kidney; for LIVER: tissue Liver; for A/G / ALP / ALT / AST / BUN / CRE / Ca / Cl / DBIL / GLC / IP / K / LDH / Na / PL / RALB / TBIL / TC / TG / TP / gamma-GTP: tissue Plasma

Cc1ccc(C)c(OCCCC(C)(C)C(=O)O)c1 [GEMFIBROZIL]
TERMINAL_BW (3 h): 219.6 g | APTT (3 h): 16 s | Bas (3 h): 0% | Eos (3 h): 0.6% | Fbg (3 h): 282.6 mg/dL | Hb (3 h): 14.2 g/dL | Ht (3 h): 41% | Lym (3 h): 79.2% | MCH (3 h): 22.1 pg | MCHC (3 h): 34.7% | MCV (3 h): 63.6 fL | Mono (3 h): 2.8% | Neu (3 h): 16.6% | PT (3 h): 12.4 s | Plat (3 h): 113.5 x10_4/uL | RBC (3 h): 644.2 x10_4/ul | Ret (3 h): 7% | WBC (3 h): 92.7 x10_2/uL | KIDNEY_L (3 h): 0.9 g | KIDNEY_R (3 h): 0.9 g | KIDNEY_TOTAL (3 h): 1.8 g | LIVER (3 h): 9.1 g | A/G (3 h): 0.9 | ALP (3 h): 1552.4 IU/L | ALT (3 h): 48.6 IU/L | AST (3 h): 74.6 IU/L | BUN (3 h): 11.6 mg/dL | CRE (3 h): 0.2 mg/dL | Ca (3 h): 11.2 mg/dL | Cl (3 h): 106.8 meq/L | DBIL (3 h): 0.046 mg/dL | GLC (3 h): 181 mg/dL | IP (3 h): 9.7 mg/dL | K (3 h): 4 meq/L | LDH (3 h): 60.8 IU/L | Na (3 h): 141.6 meq/L | PL (3 h): 156.2 mg/dL | RALB (3 h): 2.6 g/dL | TBIL (3 h): 0.048 mg/dL | TC (3 h): 70 mg/dL | TG (3 h): 141.4 mg/dL | TP (3 h): 5.5 g/dL | gamma-GTP (3 h): 1 IU/L | TERMINAL_BW (6 h): 221.2 g | APTT (6 h): 15.2 s | Bas (6 h): 0% | Eos (6 h): 0.6% | Fbg (6 h): 335.6 mg/dL | Hb (6 h): 14.3 g/dL | Ht (6 h): 41.1% | Lym (6 h): 78.6% | MCH (6 h): 22.1 pg | MCHC (6 h): 34.9% | MCV (6 h): 63.4 fL | Mono (6 h): 2.4% | Neu (6 h): 17.6% | PT (6 h): 12.3 s | Plat (6 h): 122 x10_4/uL | RBC (6 h): 649.2 x10_4/ul | Ret (6 h): 6.8% | WBC (6 h): 75.7 x10_2/uL | KIDNEY_L (6 h): 1 g | KIDNEY_R (6 h): 0.9 g | KIDNEY_TOTAL (6 h): 1.9 g | LIVER (6 h): 9.2 g | A/G (6 h): 0.9 | ALP (6 h): 1429.6 IU/L | ALT (6 h): 41 IU/L | AST (6 h): 75 IU/L | BUN (6 h): 10.4 mg/dL | CRE (6 h): 0.2 mg/dL | Ca (6 h): 11.3 mg/dL | Cl (6 h): 107.2 meq/L | DBIL (6 h): 0.044 mg/dL | GLC (6 h): 188 mg/dL | IP (6 h): 10.4 mg/dL | K (6 h): 4.2 meq/L | LDH (6 h): 60.6 IU/L | Na (6 h): 142.2 meq/L | PL (6 h): 150.4 mg/dL | RALB (6 h): 2.7 g/dL | TBIL (6 h): 0.054 mg/dL | TC (6 h): 77.2 mg/dL | TG (6 h): 90.2 mg/dL | TP (6 h): 5.6 g/dL | gamma-GTP (6 h): 1.6 IU/L | TERMINAL_BW (9 h): 224 g | APTT (9 h): 15 s | Bas (9 h): 0% | Eos (9 h): 0.8% | Fbg (9 h): 313 mg/dL | Hb (9 h): 13.8 g/dL | Ht (9 h): 40.2% | Lym (9 h): 76.8% | MCH (9 h): 21.3 pg | MCHC (9 h): 34.3% | MCV (9 h): 62 fL | Mono (9 h): 3.4% | Neu (9 h): 18% | PT (9 h): 12 s | Plat (9 h): 106.6 x10_4/uL | RBC (9 h): 649.2 x10_4/ul | Ret (9 h): 7.1% | WBC (9 h): 68.1 x10_2/uL | KIDNEY_L (9 h): 0.9 g | KIDNEY_R (9 h): 0.9 g | KIDNEY_TOTAL (9 h): 1.9 g | LIVER (9 h): 8.6 g | A/G (9 h): 0.9 | ALP (9 h): 1676.4 IU/L | ALT (9 h): 38 IU/L | AST (9 h): 69.2 IU/L | BUN (9 h): 11.8 mg/dL | CRE (9 h): 0.2 mg/dL | Ca (9 h): 10.9 mg/dL | Cl (9 h): 107 meq/L | DBIL (9 h): 0.046 mg/dL | GLC (9 h): 189.2 mg/dL | IP (9 h): 11.3 mg/dL | K (9 h): 3.8 meq/L | LDH (9 h): 52.8 IU/L | Na (9 h): 143.4 meq/L | PL (9 h): 147 mg/dL | RALB (9 h): 2.6 g/dL | TBIL (9 h): 0.05 mg/dL | TC (9 h): 78.6 mg/dL | TG (9 h): 66.4 mg/dL | TP (9 h): 5.4 g/dL | gamma-GTP (9 h): 1 IU/L | TERMINAL_BW (24 h): 227.1 g | APTT (24 h): 14.5 s | Bas (24 h): 0% | Eos (24 h): 1% | Fbg (24 h): 284.8 mg/dL | Hb (24 h): 13.8 g/dL | Ht (24 h): 39.8% | Lym (24 h): 75.6% | MCH (24 h): 22.3 pg | MCHC (24 h): 34.7% | MCV (24 h): 64.3 fL | Mono (24 h): 2.4% | Neu (24 h): 20.6% | PT (24 h): 12.1 s | Plat (24 h): 112.3 x10_4/uL | RBC (24 h): 620 x10_4/ul | Ret (24 h): 7.1% | WBC (24 h): 70.3 x10_2/uL | KIDNEY_L (24 h): 1 g | KIDNEY_R (24 h): 1 g | KIDNEY_TOTAL (24 h): 2 g | LIVER (24 h): 10.5 g | A/G (24 h): 0.9 | ALP (24 h): 1729.6 IU/L | ALT (24 h): 47.4 IU/L | AST (24 h): 70.4 IU/L | BUN (24 h): 16 mg/dL | CRE (24 h): 0.2 mg/dL | Ca (24 h): 11.3 mg/dL | Cl (24 h): 106.4 meq/L | DBIL (24 h): 0.044 mg/dL | GLC (24 h): 191 mg/dL | IP (24 h): 7.7 mg/dL | K (24 h): 4.5 meq/L | LDH (24 h): 63.6 IU/L | Na (24 h): 142.2 meq/L | PL (24 h): 137.6 mg/dL | RALB (24 h): 2.7 g/dL | TBIL (24 h): 0.036 mg/dL | TC (24 h): 68.6 mg/dL | TG (24 h): 100.6 mg/dL | TP (24 h): 5.6 g/dL | gamma-GTP (24 h): 0.8 IU/L
